Results as given in US9315483B2, “Synthesis of deuterated catechols and benzo[D][1,3]dioxoles and derivatives thereof” (Concert Pharmaceuticals, Inc., priority 2007, dated 2016).

Experiments:
[1] = biological target: CYP2D6 (Homo sapiens, UniProt P10635); assay: in vitro
Experimental: Method: This study was conducted according to the procedure established by Bertelsen et al for paroxetine. See Bertelsen K M, Venkatakrishnan K, von Moltke L L, Obach S, Greenblatt, D J. Apparent mechanism-based inhibition of human CYP2D6 in vitro by paroxetine: comparison with fluoxetine and quinidine. Drug Met Disp 2003; 31:289-293. Briefly, the test articles were pre-incubated with human liver microsomes for various times followed by the addition of dextromethorphan, a CYP2D6 substrate. The formation of dextrorphan, a CYP2D6-specific metabolite of dextromethorphan, was monitored as a measure of CYP2D6 activity.

[2] = in vitro
Experimental: (§1) Method: Test Compound A was evaluated at a concentration of 1 μM for apparent metabolic stability by the in vitro t1/2 method described by Obach et al. See Obach R S, Baxter J G, Liston T E, Silber B M, Jones B C, MacIntyre F, et al. The prediction of human pharmacokinetic parameters from preclinical and in vitro metabolism data. JPET 1997; 283:46-58.

[3] = in vitro; remark: listed apart in the source
Experimental: as §1

[4] = biological target: human cDNA-expressed CYP2D6 (Homo sapiens, UniProt P10635); assay: Drug-drug interaction potential with tamoxifen: formation of endoxifen from N-desmethyl TAM after pre-incubation with CYP2D6
Excerpt: Objective: The objective of this study was to determine the potential for the deuterated paroxetine, (3S,4R)-3-((2,2-d2-benzo[d][1,3]dioxol-5-yloxy)methyl)-4-(4-fluorophenyl)piperidine, HCl salt-hemihydrate, to inhibit the formation of endoxifen using human cDNA-expressed CYP2D6 as compared with paroxetine. The deuterated paroxetine, (3S,4R)-3-((2,2-d2-benzo[d][1,3]dioxol-5-yloxy)methyl)-4-(4-fluorophenyl)piperidine, HCl salt-hemihydrate, will be referred to as “Test Compound A” in the following examples and the figures.
Method: Test Compound A was pre-incubated for 20 min at various concentrations with human cDNA-expressed CYP2D6 (500 pmol/mL) in the presence of NADPH, after which aliquots of the reaction mixture were diluted 1:10 in buffer containing NADPH. N-desmethyl TAM (50 μM) was then added to the diluted pre-incubation mixtures. After 45 min of incubation, endoxifen concentrations were determined by LC-MS/MS.

[5] = for vasomotor symptoms (VMS); expected

Chain of CYP2D6 (P10635 whole entry): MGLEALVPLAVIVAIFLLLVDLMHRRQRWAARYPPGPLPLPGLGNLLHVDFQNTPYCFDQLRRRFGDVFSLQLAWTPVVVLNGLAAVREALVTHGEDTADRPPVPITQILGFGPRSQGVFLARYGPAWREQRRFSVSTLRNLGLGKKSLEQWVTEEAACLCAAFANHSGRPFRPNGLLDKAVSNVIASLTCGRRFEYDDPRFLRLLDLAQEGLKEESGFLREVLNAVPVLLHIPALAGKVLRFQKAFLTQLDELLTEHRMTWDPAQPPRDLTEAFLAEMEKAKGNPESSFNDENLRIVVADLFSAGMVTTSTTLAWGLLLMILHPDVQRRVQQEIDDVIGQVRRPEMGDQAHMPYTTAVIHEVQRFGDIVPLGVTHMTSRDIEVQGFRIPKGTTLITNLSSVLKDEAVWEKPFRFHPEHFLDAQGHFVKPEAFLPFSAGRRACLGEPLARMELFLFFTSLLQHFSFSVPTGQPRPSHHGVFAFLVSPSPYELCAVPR
Chain of human cDNA-expressed CYP2D6 (P10635 whole entry): as above

| KI (inactivation) ([1]; human, microsomes) [nM] | kinact ([1]; human, microsomes) [s⁻¹] | half-life at 1 μM ([2]; rat, microsomes) [min] | half-life at 1 μM ([3]; human, microsomes) [min] | SMILES | inhibition of CYP2D6, expressed as the percentage of dextrorphan formation relative to control ([1]; microsomes) | endoxifen produced in the presence of Test Compound A relative to in the presence of paroxetine ([4]; highest concentration (25 μM)) [fold] | change in the formation of endoxifen from N-desmethyl tamoxifen ([4]; over the range of concentrations tested (0-25 μM), 20 min pre-incubation with NADPH, N-desmethyl TAM 50 μM, 45 min) | CYP2D6 activity (percentage of dextrorphan formation relative to control) ([1]; 0-10 μM concentration range) | inhibition of CYP2D6 ([1]; as the concentration approached 25 μM) | mechanism-based inactivation of CYP2D6 ([1]; at concentrations up to 10 μM) | kINACT for CYP2D6 inactivation ([1]; human liver microsomes) | t1/2 ([2]; Rat liver microsomes 0.5 mg/mL, 1 μM) [min] | mean relative amount remaining at the end of 30 minutes incubation ([2]; rat hepatic microsomes 0.5 mg/mL, 1 μM, n=4) [%] | t1/2 less than the corresponding value for paroxetine ([2]; rat liver microsomes) | t1/2 ([3]; Human liver microsomes 0.5 mg/mL, 1 μM) [min] | mean relative amount remaining at the end of 30 minutes incubation ([3]; human hepatic microsomes 0.5 mg/mL, 1 μM, n=4) [%] | t1/2 less than the corresponding value for paroxetine ([3]; human liver microsomes) [%] | maximum plasma concentration in humans [5] [nM] |
| --- | --- | --- | --- | --- | --- | --- | --- | --- | --- | --- | --- | --- | --- | --- | --- | --- | --- | --- |
| 1960 | 0.00133 | 20.4 ± 2.1 | 49 ± 7.8 | Fc1ccc([C@@H]2CCNC[C@H]2COc2ccc3c(c2)OCO3)cc1 [Paroxetine, paroxetine, reference compound] | concentration- and time-dependent inhibition |  |  |  |  |  |  |  |  |  |  |  |  |  |
|  |  |  |  | Cl.Cl.O.[2H]C1([2H])Oc2ccc(OC[C@@H]3CNCC[C@H]3c3ccc(F)cc3)cc2O1.[2H]C1([2H])Oc2ccc(OC[C@@H]3CNCC[C@H]3c3ccc(F)cc3)cc2O1 [Test Compound A, (3S,4R)-3-((2,2-d2-benzo[d][1,3]dioxol-5-yloxy)methyl)-4-(4-fluorophenyl)piperidine, HCl salt-hemihydrate] |  | 12 | little to no change | remained similar to that of control | Some inhibition | does not exhibit mechanism-based inactivation | could not be calculated | 15.5 ± 1.6 | 25.5±4.3 | approximately 24% | 20.9 ± 2.0 | 37.2±3.9 | ~57 | ≤ 30 |
